This is an account of results in patent publication US20260355191A1, “PAN-RAS INHIBITOR COMPOUND” (ADLAI NORTYE BIOPHARMA CO., LTD., priority 2024, published 2026).

For orientation: IC50 means the midpoint of a concentration-inhibition curve. Usually bioavailability stands for dose-corrected exposure relative to a reference, in per cent. A low value points to poor availability. The Vd is a proportionality between amount in the body and measured concentration, not a real space. The low end stands for confinement near the circulation, the high end for extensive tissue distribution. As a reminder, the clearance is the volume of plasma or blood freed of the substance per unit of time. A low value points to inefficient removal. Usually AUC stands for concentration integrated over time. Low values mean less exposure, high ones more exposure. What is called Cmax is the highest concentration seen after dosing.

Structures are written as SMILES.

The target of one series is T1, cyclophilin A (CypA) (Homo sapiens, UniProt P62937).
T1 construct: purchased R&D 3589-CAB
T1 sequence (P62937 whole entry): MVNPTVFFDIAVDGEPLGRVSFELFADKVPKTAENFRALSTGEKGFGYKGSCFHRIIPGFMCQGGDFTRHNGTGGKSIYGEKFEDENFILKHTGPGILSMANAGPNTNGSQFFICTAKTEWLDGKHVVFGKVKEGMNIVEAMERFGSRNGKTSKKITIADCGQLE
The experiment in a line: Binary complex binding assay (BLI). The settings on record: His-tagged CypA, pH 7.4, 1:1 binding model; for Kd: read-out: KD1 (binary complex equilibrium dissociation constant); for kon: read-out: ka (association rate constant); for koff: read-out: kdis (dissociation rate constant). How it is done: To evaluate the binding ability of the test compounds to cyclophilin A (CypA), we employed a Bio-layer Interferometry (BLI) method (Octet R8) to monitor the binding kinetics between the compounds and CypA, and to calculate the affinity of the binary complex. His-tagged CypA protein (3589-CAB, R&D) was first immobilized on an NTA sensor, followed by baseline equilibration for 120 seconds in the assay buffer (20 mM HEPES, pH 7.4, 150 mM NaCl, 5 mM MgCl2, 1 mM TCEP, 0.01% Tween 20). The sensor was then exposed to buffer solutions containing different concentrations of the compounds to monitor the association process in real time. When the high-concentration compound binding reached a plateau, the sensor was transferred to compound-free buffer to measure the dissociation process. To ensure data accuracy, DMSO normalization was performed, non-specific binding was minimized by buffer optimization, and negative and positive controls were set to verify assay specificity. Data were processed using Octet Analysis Studio 13.0, analyzed using a 1:1 binding model, and the association rate constant (ka), dissociation rate constant (kdis), and equilibrium dissociation constant (KD1) were calculated.

The next series concerns HepG2. The experiment in a line: In vitro cell proliferation inhibition assay (CellTiter-Glo), HepG2. The note with it: HepG2, NRAS (p.Q61L), 72 h; read-out: IC50, antiproliferative activity. The class given is cell-based. Here is the method:
(§1) Due to the diversity of RAS mutations, and in order to evaluate the activity of the compounds in different RAS mutant cell lines, we selected cell lines with KRAS^G12D, KRAS^G12V, KRAS^G12c, NRAS^q61L, KRAS^G13D, KRAS^G12R, and KRAS^WT mutations (see the table below for in vitro activity evaluation and screening of the compounds.
(§2) According to the doubling time of different cell lines, different numbers of cells (1000-5000 cells/well) were seeded into 96-well plates containing 180 μL of the corresponding culture medium, and incubated overnight in a cell incubator at 37 °C with 5% C02. On the following day, the test compounds were pre-diluted in the culture medium in a 3-fold serial dilution series, with the highest concentration being […], resulting in 10 concentration gradients in total. Subsequently, 20 μL of culture medium containing the compounds at different concentrations was added to the cells in the 96-well plates, ensuring a final compound concentration of up to 10 μM, with 10 concentrations in 3-fold dilution. After co-incubation of the cells with the compounds for 72 h, the 96-well plates were removed from the incubator and equilibrated at room temperature for 30 min. Then, 25 μL of CellTiter-Glo® Reagent was added to each well and mixed thoroughly, followed by incubation at room temperature for 10 min. Subsequently, 100 μL of the samples was transferred to white 96-well plates (OptiPlate™-96, PerkinElmer), and […] signal values were read using a multifunctional microplate reader (SpectraMax i3x, Molecular Devices). The signal values were then normalized, and curve fitting was performed using a four-parameter logistic regression equation to calculate the half maximal inhibitory concentration (IC50) of the compounds against the cell lines.
For orientation: ATP-based viability assays read luminescence as a measure of living cells.

The next series deals with SW480. The experiment in a line: In vitro cell proliferation inhibition assay (CellTiter-Glo), SW480. The note with it: SW480, KRAS (p.G12V), 72 h; read-out: IC50, antiproliferative activity. The series is classed as cell-based. How it is done:
as §1, §2

Series [1] deals with ternary complex comprising RAS and CypA; KRAS^WT (Homo sapiens, UniProt P01116+P62937). The experiment in a line: Ternary complex binding assay (BLI), KRAS WT. The note with it: GMPPNP-loaded KRAS^WT, fixed concentration of CypA, pH 7.4, read-out: KD2 (ternary complex equilibrium dissociation constant). How it is done:
(§3) To evaluate the ability of the test compounds to induce the formation of a ternary complex comprising RAS and CypA, we employed a Bio-layer Interferometry (BLI) method (Octet R8) to monitor the binding kinetics among the compounds, RAS, and CypA, and to calculate the affinity of the ternary complex. GMPPNP was first incubated with RAS protein to load GMPPNP onto RAS. His-tagged RAS proteins with different mutations were then immobilized on NTA sensors, followed by baseline equilibration for 120 seconds in the assay buffer (20 mM HEPES, pH 7.4, 150 mM NaCl, 5 mM MgCl2, 1 mM TCEP, 5 μM GMPPNP, 0.01% Tween 20). The sensors were subsequently exposed to buffer containing various concentrations of the compounds and a fixed concentration of CypA, and the association phase of ternary complex formation was monitored in real time. Once binding reached a plateau, the sensors were transferred to compound- and CypA-free buffer to measure the dissociation phase. To ensure accuracy, DMSO normalization was performed, buffer composition was optimized to reduce non-specific binding, and both negative and positive controls were employed to verify assay specificity. Data were processed using Octet Analysis Studio 13.0, analyzed using a 1:1 binding model, and the association rate constant (ka), dissociation rate constant (kdis), and equilibrium dissociation constant (KD2) were calculated.

Another series deals with H358. The experiment in a line: In vitro cell proliferation inhibition assay (CellTiter-Glo), H358. The series is classed as cell-based. The note with it: H358, KRAS (p.G12C), 72 h; read-out: IC50, antiproliferative activity. How it is done: as §1, §2
The next series deals with PSN1. In words: In vitro cell proliferation inhibition assay (CellTiter-Glo), PSN1. The class given is cell-based. The settings on record: PSN1, KRAS (p.G12R), 72 h; read-out: IC50, antiproliferative activity. Here is the method:
as §1, §2

Series [2] addresses ternary complex comprising RAS and CypA; KRAS^G12V (Homo sapiens, UniProt P01116+P62937, G12V). The experiment in a line: Ternary complex binding assay (BLI), KRAS G12V. The settings on record: GMPPNP-loaded KRAS^G12V, fixed concentration of CypA, pH 7.4, read-out: KD2 (ternary complex equilibrium dissociation constant). Here is the method:
as §3

Series [3] deals with ternary complex comprising RAS and CypA; KRAS^G12D (Homo sapiens, UniProt P01116+P62937, G12D). In words: Ternary complex binding assay (BLI), KRAS G12D. The settings on record: GMPPNP-loaded KRAS^G12D, fixed concentration of CypA, pH 7.4, read-out: KD2 (ternary complex equilibrium dissociation constant). Here is the method:
as §3

Another series deals with MV411. In words: In vitro cell proliferation inhibition assay (CellTiter-Glo), MV411. The series is classed as cell-based. The note with it: MV411, KRAS wild type, 72 h; read-out: IC50, antiproliferative activity. Here is the method:
as §2

A further series has as its system AsPC-1. In words: In vitro cell proliferation inhibition assay (CellTiter-Glo), AsPC-1. The series is classed as cell-based. The settings on record: AsPC-1, KRAS (p.G12D), 72 h; read-out: IC50, antiproliferative activity. How it is done:
as §1, §2

For the next series, the system named is HCT116. In words: In vitro cell proliferation inhibition assay (CellTiter-Glo), HCT116. The series is classed as cell-based. The settings on record: HCT116, KRAS (p.G13D), 72 h; read-out: IC50, antiproliferative activity. How it is done:
as §1, §2

A short description of series [4]: Pharmacokinetic study in mice. The class given is in vivo. The note with it: mouse, male CD-1 mice. How it is done: To evaluate the pharmacokinetic behavior of the compounds of the disclosure in male CD-1 mice, the test compounds were dissolved in a solvent (5% DMSO/10% solutol/85% water). Twelve male CD-1 mice were divided into two groups, with six animals in each group. Group 1 received a single intravenous bolus (i.v.) administration of the compound, and Group 2 received a single oral (p.o.) administration of the compound. Whole blood samples were collected at 0.083 h (intravenous group only), 0.25, 0.5, 1, 2, 4, 8, and 24 hours after dosing. The concentration of the test compound in whole blood samples was determined using the LC-MS/MS method.

Where [5] appears, read: iv, 1 mg/kg, i.v. 1 mpk, whole blood.
[6] abbreviates: po, 2 mg/kg, p.o. 2 mpk, whole blood.

ternary complex comprising RAS and CypA; KRAS^WT, sequence (P01116 1-188 isoform P01116-2): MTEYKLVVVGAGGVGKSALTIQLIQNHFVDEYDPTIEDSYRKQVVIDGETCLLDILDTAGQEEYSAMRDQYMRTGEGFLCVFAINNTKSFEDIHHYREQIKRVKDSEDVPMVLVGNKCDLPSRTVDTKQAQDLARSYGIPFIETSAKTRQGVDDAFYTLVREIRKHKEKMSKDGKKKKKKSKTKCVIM
ternary complex comprising RAS and CypA; KRAS^WT, sequence (P62937 whole entry): as the sequence (P62937 whole entry) above
ternary complex comprising RAS and CypA; KRAS^G12D, sequence (P01116 1-188 isoform P01116-2 G12D): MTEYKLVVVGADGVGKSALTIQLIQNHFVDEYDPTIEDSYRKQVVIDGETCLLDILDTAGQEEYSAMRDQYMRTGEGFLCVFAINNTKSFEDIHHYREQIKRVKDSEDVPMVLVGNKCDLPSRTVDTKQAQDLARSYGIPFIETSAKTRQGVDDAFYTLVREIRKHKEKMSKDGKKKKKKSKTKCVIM
ternary complex comprising RAS and CypA; KRAS^G12D, sequence (P62937 whole entry): as the sequence (P62937 whole entry) above
ternary complex comprising RAS and CypA; KRAS^G12V, sequence (P01116 1-188 isoform P01116-2 G12V): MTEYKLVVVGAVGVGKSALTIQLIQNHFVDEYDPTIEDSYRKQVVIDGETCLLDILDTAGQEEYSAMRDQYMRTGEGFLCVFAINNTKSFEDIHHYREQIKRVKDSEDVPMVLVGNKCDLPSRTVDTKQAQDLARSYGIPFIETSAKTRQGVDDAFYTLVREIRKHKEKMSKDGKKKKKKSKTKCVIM
ternary complex comprising RAS and CypA; KRAS^G12V, sequence (P62937 whole entry): as the sequence (P62937 whole entry) above

For the molecule `CO[C@@H](C)c1ncc(-c2nnc(C3CCN(C4COC4)CC3)o2)cc1-c1c2c3cc(ccc3n1CC(F)(F)F)-c1csc(n1)C[C@H](NC(=O)[C@H]1C[C@@H]1C)C(=O)N1CCC[C@H](N1)C(=O)OCC(C)(C)C2` (atropisomer, axis not shown) [Compound 5, (1S,2S)—N-((6^3S,4S,Z)-1^2-(2-((S)-1-methoxyethyl)-5-(5-(1-(oxetan-3-yl)piperidin-4-yl)-1,3,4-oxadiazol-2-yl)pyridin-3-yl)-10,10-dimethyl-5,7-dioxo-1^1-(2,2,2-trifluoroethyl)-6^1,6^2,6^3,6^4,6^5,6^6-hexahydro-1^1H-8-oxa-2(4,2)-thiazola-1(5,3)-indola-6(1,3)-pyridazinacycloundecaphane-4-yl)-2-methylcyclopropane-1-carboxamide], the Kd amounted to 8.6 nM at cyclophilin A (CypA), 17 nM in series [1], 27 nM in [2] and 27 nM in series [3]. Moreover, the kon at cyclophilin A (CypA) turned out to be 200000 M⁻¹ s⁻¹. Besides, the koff on cyclophilin A (CypA) came out at 0.0017 s⁻¹. The IC50 in the series on HepG2 was found to be 0.66 nM; with SW480 it was 0.11 nM; with H358 it was 0.034 nM; in the series on PSN1, 0.03 nM; in the series on MV411 it was 0.66 nM; in the series on AsPC-1 it was 0.08 nM. Further, the IC50 in the series on HCT116 is 0.02 nM.

On to `CO[C@@H](C)c1ncc(-c2nnc(C3CCN(C4COC4)CC3)o2)cc1-c1c2c3cc(ccc3n1CC(F)(F)F)-c1csc(n1)C[C@H](NC(=O)[C@H]1[C@H](C)[C@@H]1C)C(=O)N1CCC[C@H](N1)C(=O)OCC(C)(C)C2` (atropisomer, axis not shown) [Compound 6, (1r,2R,3S)—N-((6^3S,4S,Z)-1^2-(2-((S)-1-methoxyethyl)-5-(5-(1-(oxetan-3-yl)piperidin-4-yl)-1,3,4-oxadiazol-2-yl)pyridin-3-yl)-10,10-dimethyl-5,7-dioxo-1^1-(2,2,2-trifluoroethyl)-6^1,6^2,6^3,6^4,6^5,6^6-hexahydro-1^1H-8-oxa-2(4,2)-thiazola-1(5,3)-indola-6(1,3)-pyridazinacycloundecaphane-4-yl)-2,3-dimethylcyclopropane-1-carboxamide], for which the Kd stood at 3 nM on cyclophilin A (CypA), 16 nM in series [1], 26 nM in series [2] and 24 nM in series [3]. The kon at cyclophilin A (CypA) was 130000 M⁻¹ s⁻¹. For the same molecule, the koff on cyclophilin A (CypA) stood at 0.0004 s⁻¹. Besides, the IC50 with HepG2 was determined as 0.04 nM; in the series on SW480, 0.03 nM; in the series on H358, 0.007 nM; in the series on PSN1 it was 0.04 nM; in the series with MV411, 0.12 nM; with AsPC-1, 0.02 nM. For the same molecule, the IC50 in the series on HCT116 stood at 0.44 nM. For the same molecule, the bioavailability in series [4] (blood, po, i.v. 1 mpk, p.o. 2 mpk) was 43.1%. This molecule also had a Vd in [4] (setting [5]) of 1.14 L/kg. In series [4] (setting [5]), this molecule returned a clearance of 2.6 mL/min/kg. In addition, the AUC in series [4] (setting [6]) was determined as 5630 ng·h/mL. For the same molecule, in [4] (setting [6]), the Cmax was 439 ng/mL.

Consider `CO[C@@H](C)c1ncc(-c2nnc(C3CCN(C4CN(C(C)C)C4)CC3)o2)cc1-c1c2c3cc(ccc3n1CC(F)(F)F)-c1csc(n1)C[C@H](NC(=O)[C@H]1[C@H](C)[C@@H]1C)C(=O)N1CCC[C@H](N1)C(=O)OCC(C)(C)C2` (atropisomer, axis not shown) [Compound 10, (1r,2R,3S)—N-((6^3S,4S,Z)-1^2-(5-(5-(1-(1-isopropylazetidin-3-yl)piperidin-4-yl)-1,3,4-oxadiazol-2-yl)-2-((S)-1-methoxyethyl)pyridin-3-yl)-10,10-dimethyl-5,7-dioxo-1^1-(2,2,2-trifluoroethyl)-6^1,6^2,6^3,6^4,6^5,6^6-hexahydro-1^1H-8-oxa-2(4,2)-thiazola-1(5,3)-indola-6(1,3)-pyridazinacycloundecaphane-4-yl)-2,3-dimethylcyclopropane-1-carboxamide], for which the “ka (association rate constant)” value on cyclophilin A (CypA) was 2.1E+05 1/[M*s]. The Kd was found to be 2.7 nM at cyclophilin A (CypA), 9.3 nM in series [1], 12 nM in [2] and 17 nM in [3]. Moreover, the koff on cyclophilin A (CypA) came to 0.00057 s⁻¹. In addition, the concentration for half-maximal inhibition (IC50) in the series on HepG2 came to 0.1 nM; with SW480, 0.01 nM; with H358, 0.021 nM; with PSN1 it was 0.07 nM; in the series with MV411, 0.42 nM; in the series with AsPC-1 it was 0.005 nM. For the same molecule, the IC50 with HCT116 turned out to be 0.14 nM.
